Assay results reported in patent US20110076339A1, “Colon Cleansing Method and Kit” (Kingston General Hospital, priority 2008, published 2011).

Test: Patient diary of bowel movements after laxative use
Format: in vivo, human
Source text: In patient tolerance studies described herein, treatment groups received an osmotic purgative on the evening before colonoscopy in split doses. Comparisons were made between the results of these osmotic purgatives. Also, a comparison was made between patients treated with osmotic purgative alone, and patients treated initially with stimulant laxative followed by osmotic purgative. Table III provides a summary of data gathered from diaries that were kept by 100 patients as they progressed through a colon cleansing regimen. Each patient recorded the time of the first and last bowel movement following consumption of a laxative, as well as the total number of bowel movements associated with consumption of a particular laxative.

[1] = 10 mg taken 2 nights before colonoscopy (e.g. at suppertime)
[2] = 10 mg taken 3 nights before colonoscopy (e.g. at suppertime)

With CC(=O)Oc1ccc(C(c2ccc(OC(C)=O)cc2)c2ccccn2)cc1 [Bisacodyl, bisacodyl] the “Mean time to first BM ± standard deviation” value [1] was 8.6 ± 5.3 h, the “Mean time to last BM ± standard deviation” value [1] was 16.5 ± 5.3 h and the “Total number BM ± standard deviation” value [1] was 3.8 ± 2. For the same compound, the “Mean time to first BM ± standard deviation” value [2] was 8.9 ± 5.1 h, the “Mean time to last BM ± standard deviation” value [2] was 16.5 ± 5.1 h and the “Total number BM ± standard deviation” value [2] was 3.4 ± 2.
